Values of other authors as cited in patent US6399115B2, “Method and composition for the treatment of benign prostate hypertrophy (BPH) and prevention of prostate cancer” (priority 1999, dated 2002).

Tests used:
[1] = tested on: 5 alpha-reductase; conditions: human prostatic tissue
[2] = tested on: plasma testosterone; conditions: in vivo
[3] = among the major carotenoids

[Zn] [Zinc]
relationship with 5 alpha-reductase activity [1]: inverse relationship

[Cu] [Copper]
levels of plasma testosterone [2]: reduce

CC(C)=CCC/C(C)=C/C=C/C(C)=C/C=C/C(C)=C/C=C/C=C(C)/C=C/C=C(C)/C=C/C=C(\C)CCC=C(C)C [lycopene]
quenching free oxygen radicals [3]: most effective and significant
